Format in all cases: cell-based
Data set [1] concerns the target human CXCR3A (Homo sapiens (Human), UniProt P49682). Description: FLIPR assay (CXCL10-induced calcium signal). The following applies: CHO-K1 cells expressing human CXCR3A coupled to Galpha(16); CXCL10 agonist 20 nM; mean values. The source says:
In the case where IC50 values have been determined several times for the same compound, mean values are given.

In data set [2] the target is CXCR3 (Homo sapiens (Human), UniProt P49682). Description: Receptor internalization assay in human whole blood (CXCR3 surface expression on CD4 positive cells, CXCL10). Particulars: final CXCL10 9 nM, 30 min at 37° C., mean values. The essentials:
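Human whole blood with compound plus CXCL10 (9 nM final), 30 min at 37 °C in CO2 incubator, then stained for CXCR3 and CD4 and RBC-lysed. Flow cytometry mean CXCR3 fluorescence on CD4+ cells fitted to single-site dose response for IC50; repeated determinations averaged.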

Data set [3] deals with hERG K channel (Homo sapiens (Human), UniProt Q12809). Description: hERG Q-Patch assay. Particulars: CHO cells expressing hERG, K+ tail current 3 min after application, mean of two or three experiments. In short, it runs like this: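 CHO cells stably expressing hERG, automated whole-cell patch clamp at room temperature. Tail currents at −40 mV after 500-ms step to +20 mV from −80 mV, pulsed every 10 s; compound at 300 nM or 3000 nM (0.3% DMSO), current read 3 min after application. % block versus baseline, mean of 2–3 experiments.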
Background: Block of hERG is tested as a sign of cardiac risk.

As a reminder, the IC50 is the midpoint of a concentration-inhibition curve.

CXCR3, sequence (P49682 whole entry): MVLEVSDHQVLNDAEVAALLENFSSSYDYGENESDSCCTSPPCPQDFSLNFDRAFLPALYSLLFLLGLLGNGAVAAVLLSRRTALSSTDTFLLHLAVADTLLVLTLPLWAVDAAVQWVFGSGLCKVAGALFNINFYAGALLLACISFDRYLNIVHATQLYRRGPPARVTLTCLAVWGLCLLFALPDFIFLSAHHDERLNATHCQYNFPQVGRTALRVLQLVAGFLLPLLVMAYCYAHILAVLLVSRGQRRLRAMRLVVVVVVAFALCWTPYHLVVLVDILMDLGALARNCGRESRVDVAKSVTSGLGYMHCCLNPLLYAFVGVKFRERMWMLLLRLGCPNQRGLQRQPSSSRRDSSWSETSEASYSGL
human CXCR3A, sequence (P49682 whole entry): as above
hERG K channel, sequence (Q12809 whole entry): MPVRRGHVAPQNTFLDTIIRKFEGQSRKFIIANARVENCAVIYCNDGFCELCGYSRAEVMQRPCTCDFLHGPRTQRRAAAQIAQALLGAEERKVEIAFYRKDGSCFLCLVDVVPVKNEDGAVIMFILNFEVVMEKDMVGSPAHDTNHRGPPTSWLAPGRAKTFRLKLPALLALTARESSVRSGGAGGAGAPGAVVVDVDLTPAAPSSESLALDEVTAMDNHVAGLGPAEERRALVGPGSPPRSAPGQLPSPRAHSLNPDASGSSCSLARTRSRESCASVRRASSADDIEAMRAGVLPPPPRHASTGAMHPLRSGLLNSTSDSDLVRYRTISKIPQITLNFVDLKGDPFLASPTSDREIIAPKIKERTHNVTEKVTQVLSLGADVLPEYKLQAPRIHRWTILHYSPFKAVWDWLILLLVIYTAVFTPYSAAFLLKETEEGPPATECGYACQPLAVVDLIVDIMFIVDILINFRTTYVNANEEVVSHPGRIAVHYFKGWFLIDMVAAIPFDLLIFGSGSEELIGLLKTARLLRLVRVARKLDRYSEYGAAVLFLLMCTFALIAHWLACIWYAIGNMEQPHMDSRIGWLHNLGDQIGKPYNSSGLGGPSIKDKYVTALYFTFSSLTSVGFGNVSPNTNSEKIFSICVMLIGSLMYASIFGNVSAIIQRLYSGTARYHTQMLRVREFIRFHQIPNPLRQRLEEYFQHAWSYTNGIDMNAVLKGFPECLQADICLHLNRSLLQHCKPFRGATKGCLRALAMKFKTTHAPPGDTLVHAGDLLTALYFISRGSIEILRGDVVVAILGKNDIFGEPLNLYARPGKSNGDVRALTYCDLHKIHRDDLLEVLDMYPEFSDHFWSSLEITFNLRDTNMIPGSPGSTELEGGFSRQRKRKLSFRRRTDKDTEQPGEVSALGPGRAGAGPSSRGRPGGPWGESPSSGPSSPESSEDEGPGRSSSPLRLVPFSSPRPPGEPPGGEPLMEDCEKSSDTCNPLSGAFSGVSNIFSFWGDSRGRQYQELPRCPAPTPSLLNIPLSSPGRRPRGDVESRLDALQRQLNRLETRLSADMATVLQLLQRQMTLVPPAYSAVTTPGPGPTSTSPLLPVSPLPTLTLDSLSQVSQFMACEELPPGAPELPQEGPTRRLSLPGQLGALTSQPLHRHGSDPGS

Turning to `CC(C)(C)c1ncn(CC(=O)N2CCN(c3sc(C(F)(F)F)nc3-c3cnc(C(F)(F)F)nc3)C[C@H]2CCO)n1` [Example 30, 2-(3-tert-Butyl-[1,2,4]triazol-1-yl)-1-{(R)-2-(2-hydroxy-ethyl)-4-[2-trifluoromethyl-4-(2-trifluoromethyl-pyrimidin-5-yl)-thiazol-5-yl]-piperazin-1-yl}-ethanone], the IC50 in data set [1] worked out at 4.4 nM; in data set [2], 170 nM. Moreover, the “% block” value in data set [3] (concentration 300 nM) is given as −2%; in data set [3] (concentration 3000 nM), 25%.
In the same order, the values of `Cc1ncnn1CC(=O)N1CCN(c2sc(C(F)(F)F)nc2-c2cnc(C(F)(F)F)nc2)C[C@H]1CCO` [Example 36, 1-{(R)-2-(2-Hydroxy-ethyl)-4-[2-trifluoromethyl-4-(2-trifluoromethyl-pyrimidin-5-yl)-thiazol-5-yl]-piperazin-1-yl}-2-(5-methyl-[1,2,4]triazol-1-yl)-ethanone] are 8 nM, 451 nM, 10% and 19%.
In the same order, the values of `Cc1ccn(CC(=O)N2CCN(c3sc(C(F)(F)F)nc3-c3cnc(C(F)(F)F)nc3)C[C@H]2CCO)n1` [Example 39, 1-{(R)-2-(2-Hydroxy-ethyl)-4-[2-trifluoromethyl-4-(2-trifluoromethyl-pyrimidin-5-yl)-thiazol-5-yl]-piperazin-1-yl}-2-(3-methyl-pyrazol-1-yl)-ethanone] are 1 nM, 46.3 nM, 1% and 32%.
As for `Cc1ccn(CC(=O)N2CCN(c3sc(C(F)(F)F)nc3-c3cnc(C(F)(F)F)nc3)C[C@@H]2CO)n1` [Example 22, 1-{(R)-2-Hydroxymethyl-4-[2-trifluoromethyl-4-(2-trifluoromethyl-pyrimidin-5-yl)-thiazol-5-yl]-piperazin-1-yl}-2-(3-methyl-pyrazol-1-yl)-ethanone], the results for the IC50 in data set [1] and in data set [2] were 1.6 nM and 105 nM, respectively. Further, the results for the “% block” value in data set [3] (concentration 300 nM) and in data set [3] (concentration 3000 nM) were 4% and 15%, respectively.
In the same order, the values of `CCOc1ncc(-c2nc(C(F)(F)F)sc2N2CCN(C(=O)Cn3cnc(C(F)(F)F)n3)[C@H](CO)C2)cn1` [Example 6, 1-{(S)-4-[4-(2-Ethoxy-pyrimidin-5-yl)-2-trifluoromethyl-thiazol-5-yl]-2-hydroxymethyl-piperazin-1-yl}-2-(3-trifluoromethyl-[1,2,4]triazol-1-yl)-ethanone] are 4.6 nM, 778 nM, 13% and 23%.
For `CC(C)c1ncn(CC(=O)N2CCN(c3sc(C(F)(F)F)nc3-c3cnc(C(F)(F)F)nc3)C[C@H]2CCO)n1` [Example 34, 1-{(R)-2-(2-Hydroxy-ethyl)-4-[2-trifluoromethyl-4-(2-trifluoromethyl-pyrimidin-5-yl)-thiazol-5-yl]-piperazin-1-yl}-2-(3-isopropyl-[1,2,4]triazol-1-yl)-ethanone], in that order: 4.5 nM, 84.8 nM, 10% and 34%.
For `O=C(Cn1cnc(C(F)(F)F)n1)N1CCN(c2sc(C(F)(F)F)nc2-c2cnc(C(F)(F)F)nc2)C[C@H]1CO` [Example 5, 1-{(S)-2-Hydroxymethyl-4-[2-trifluoromethyl-4-(2-trifluoromethyl-pyrimidin-5-yl)-thiazol-5-yl]-piperazin-1-yl}-2-(3-trifluoromethyl-[1,2,4]triazol-1-yl)-ethanone], in that order: 4 nM, 328 nM, −2% and 7%.
With `COCc1ncn(CC(=O)N2CCN(c3sc(C(F)(F)F)nc3-c3cnc(C(F)(F)F)nc3)C[C@H]2CCO)n1` [Example 37, 1-{(R)-2-(2-Hydroxy-ethyl)-4-[2-trifluoromethyl-4-(2-trifluoromethyl-pyrimidin-5-yl)-thiazol-5-yl]-piperazin-1-yl}-2-(3-methoxymethyl-[1,2,4]triazol-1-yl)-ethanone], the IC50 in data set [1] was found to be 5.7 nM; in data set [2], 393 nM. Also, the “% block” value in data set [3] (concentration 300 nM) was found to be 4%; in data set [3] (concentration 3000 nM), 9%.
In the same order, the values of `O=C(Cn1cnc(-c2ccccc2)n1)N1CCN(c2sc(C(F)(F)F)nc2-c2cnc(C(F)(F)F)nc2)C[C@@H]1CO` [Example 19, 1-{(R)-2-Hydroxymethyl-4-[2-trifluoromethyl-4-(2-trifluoromethyl-pyrimidin-5-yl)-thiazol-5-yl]-piperazin-1-yl}-2-(3-phenyl-[1,2,4]triazol-1-yl)-ethanone] are 42 nM, 3310 nM, 6% and 41%.
In the same order, the values of `O=C(Cn1ccc2cc(F)ccc21)N1CCN(c2sc(C(F)(F)F)nc2-c2cnc(C(F)(F)F)nc2)C[C@@H]1CO` [Example 14, 2-(5-Fluoro-indol-1-yl)-1-{(R)-2-hydroxymethyl-4-[2-trifluoromethyl-4-(2-trifluoromethyl-pyrimidin-5-yl)-thiazol-5-yl]-piperazin-1-yl}-ethanone] are 0.7 nM, 199 nM, 14% and 62%.

The record behind these values is patent US10053457B2, “Hydroxyalkyl-piperazine derivatives as CXCR3 receptor modulators” (IDORSIA PHARMACEUTICALS LTD, priority 2015, dated 2018).
